These results are taken from a melting point compilation (Tetko et al.; mined from patent text by program, amines drawn as free bases though some values may be those of a salt).

Residues, ends and D or L forms follow the SMILES beside them. *: point of attachment. Boc = CC(C)(C)OC(=O)*; Bn = c1ccc(C*)cc1 Where only a bound is given, the exact number is not on record here.

As a reminder, the melting point is the temperature, or range, at which the solid turns liquid. In turn, `CCCNC(=O)N1Cc2cccn2-c2ccsc2C1=O` gave a melting point of 120 °C.
In the case of `O=C(O)CCCCCc1nc2c(F)c(F)cc(F)c2s1`, the melting point was in the range of 84 to 86 °C.
In turn, `COc1ccc(-c2cc3cc(F)c(F)cc3[nH]2)cc1NC(=S)Nc1cccc(C(=O)O)c1` registered a melting point of 221 to 223 °C.
In turn, `O=C(O)CCC(=NOCc1ccc(OCc2coc(-c3ccccc3)n2)cc1)c1ccccc1` displayed a melting point of 144 to 145 °C.
The result for `CCCN1CC=C(c2cccc3[nH]ccc23)CC1` reads 105 °C; that for `CC1(C)Oc2ccsc2C(N2CCCC2)C1O` (stereo not given), 85 to 89 °C.
The result for `C=C1c2ccccc2CC(N)c2ccccc21` (stereo not given) reads 84.5 to 86.5 °C; that for `CC(C=CC(C)C(C)(C)O)C1CCC2C(=O)CCCC21C` (stereo not given), 101 to 102 °C.
As for `CCC(CC)Cn1cc(C(=O)C(=O)O)c2cc(-c3ccc(OC(F)(F)F)cc3)ccc21`, the figure is 98 to 99 °C; as for `CCOC(=O)c1sc(Oc2ccc(NC(=O)OC(C)(C)C)cc2)c2c1CCc1cnn(C)c1-2`, 186 to 187 °C; as for `CCC(=O)c1ccc2cc(O)ccc2c1`, 158 to 159 °C.
Regarding `N#Cc1ccc2oc(-c3ccc(O)cc3)cc(=O)c2c1`, the melting point fell in the range of 296 to 298 °C.
As for `CCOC(=O)C(N=C(c1ccccc1)c1cc(Cl)ccc1NC)C(=O)OCC`, the figure is 88 °C.
As for `Cc1onc(-c2ccc(C(F)(F)F)cc2)c1CO`, the figure is 72 to 73 °C; as for `COc1cc(CSc2ccc(N)nn2)cc(OC)c1OC`, 143 to 146 °C.
Take `COc1ccccc1OCCCl`: the melting point lay within 36 to 38 °C.
The result for `COc1cc(Br)cc2nc(SCc3ccccc3)nn12` reads 80 to 82 °C; that for `CN1CCc2c(cc3ccccc3c2N)C1`, 97 to 99 °C; that for `CC(=O)Nc1cccnc1NC(=O)C(C)(C)Oc1cccc(Cl)n1`, 185 °C.
`COc1cc(C)cc2nc(SCc3ccccc3)nn12`: the melting point lay in the range of 85 to 87 °C.
As for `CCOC(=O)c1cccc(Nc2ncnc3[nH]cc(C(=O)c4ccccc4)c23)c1`, the melting point was 256 to 258 °C.
The result for `O=C1NC(=O)C(c2ccccc2)(c2c[nH]c3ccccc23)N1` (stereo not given) reads 302 to 303 °C; that for `COc1ccc(S(=O)(=O)Nc2c(/C=C/c3ccncc3)cccc2OC)cc1`, 205 to 206 °C.
As for `COc1ccc(NC(=NC#N)N2CCn3c(c(C(N)=O)c(Cl)c3-c3ccccc3)C2)cc1`, the figure is 170 °C; as for `COc1ccc2c(C(=O)NCCCCC(=O)O)cc3cc4c(cc3c2c1)OCO4`, 137 to 138 °C; as for `CCn1c(C)c(C(C)=O)c(N)c1-c1ccccc1`, 107 to 108 °C.
As for `COc1cc(-n2nc3n(c2=S)CCSC3)c(Cl)cc1Cl`, the figure is 131 to 135 °C; as for `c1ccc(CSc2nnc(-c3ccc4c(c3)CCO4)o2)cc1`, 148 to 149 °C; as for `CC(C)(C)OC(=O)NNC(=O)c1cc(=O)c(OCc2ccccc2)c[nH]1`, 160 to 165 °C.
For `COc1ccc2sc(Cc3ccc(Cl)cc3)nc2c1`, the melting point is 83 to 85 °C.
The result for `Cn1nc2c(N)nc3ccccc3c2c1CC(C)(C)NC(=O)c1ccccc1` reads 194 to 196 °C.
As for `N#CCC1CCN1C(c1ccccc1)c1ccccc1` (stereo not given), the melting point is 82 to 85 °C.
The result for `CN(Cc1ccc(COC(=O)NC(Cc2ccccc2)C(=O)O)cc1)c1ccccc1` (stereo not given) reads 69.6 to 70.1 °C; that for `COC(=O)c1[nH]c(-c2ccccc2)c(N=Cc2ccccc2)c1C(=O)OC`, 218 to 220 °C.
With `COC(=O)C(CC(C)C)NC(=O)C(C)NC(=O)C(Cc1ccc(OCc2ccccc2)cc1)NC(=O)C(COCc1ccccc1)NC(=O)OC(C)(C)C` (stereo not given) (Boc-S(Bn)Y(Bn)AL-OMe; configuration not given here), the melting point was in the range of 67 to 71 °C.
`COC(=O)Cc1c(C)n(-c2ncnc3cc(Cl)ccc23)c2ccc(OC)cc12` returned a melting point of 112 to 114 °C.
As for `CN1CCN(c2nc(N)c3cc(Cl)ccc3n2)CC1`, the figure is 176 to 178 °C; as for `COc1cc([C@@H]2SC[C@@H](c3cc(OC)c(O)c(OC)c3)S2)cc(OC)c1O` (relative stereo), 169 to 170 °C; as for `CCOC(=O)c1[nH]c(C(=O)OCC)c(C)c1C`, 66 to 68 °C.
The result for `CCCCCCOc1ccc(O)c2cc(C)c(C)cc12` reads 72 to 73 °C.
As for `CCOC(=O)c1cccc(OCCCCCCCc2cc(C)no2)c1`, the figure is 16 to 18 °C; as for `N#Cc1ccc(Cc2ccc(O)cc2)cc1`, 163 to 164 °C; as for `Cc1nc(-c2cc3cc(OCCNC[C@H](O)c4cccc(Cl)c4)ccc3o2)no1`, 88 to 92 °C.
`Nc1c(F)c(F)nc(-n2cc(C(=O)O)c(=O)c3cc(F)c(F)c(Cl)c32)c1F` showed a melting point of 280 to 283 °C.
Turning to `CSCC(C)(C)NC(=O)c1ccccc1Cl`, the melting point lay in the range of 83 to 86 °C.
As for `O=C(O)CCC1c2ccccc2-c2ccccc21`, the figure is 216 to 217 °C; as for `CC1=Cc2cc(Br)cc(S(N)(=O)=O)c2OS1(=O)=O`, 243 to 245 °C; as for `NS(=O)(=O)c1cc2cc(O)cnc2s1`, 270 to 271 °C.
As for `CC1(C)CC(O)CC(C)(C)N1CC#CCN1C(C)(C)CC(O)CC1(C)C`, the figure is 203 °C; as for `CC(SC1COC(c2ccc(C(=O)Nc3ccc(C#N)cc3)cc2F)OC1)C(O)(Cn1cncn1)c1ccc(F)cc1F` (stereo not given), 110 °C; as for `O=C(O)C1=Cc2cc(OCc3ccc(F)cc3)ccc2S(=O)(=O)CC1`, 270 to 273 °C.
`O=C(CCC1CCCCC1)C1=C(O)CSC1=O` returned a melting point of 60 to 62 °C.
In turn, `CCc1nc2c(Cl)ncnc2n1Cc1ccc(OC)cc1` showed a melting point of 101 to 103 °C.
`O=C(O)CNCC(=O)NC[C@@H]1CC(c2ccc(-c3ccc(N4C[C@H](Cn5ccnn5)OC4=O)cc3F)cn2)=NO1` displayed a melting point of 200 to 210 °C.
The result for `NC(=O)c1c(F)cccc1[N+](=O)[O-]` reads 161 to 162 °C; that for `CC(=O)OCC(=O)C1CC(OS(=O)(=O)c2c(C)cc(C)cc2C)C2C3CCC4CC(OC(C)=O)CCC4(C)C3CC(OC(C)=O)C12C` (stereo not given), 156 to 157 °C; that for `CC(=O)NCC1CN(c2ccc(C(=O)c3cnc4n3CCS4)cc2)C(=O)O1` (stereo not given), 259 to 260 °C.
Compound `O=C(Nc1ccnc(Br)c1)C1(O)CCCC1` displayed a melting point of 153 °C.
As for `Cc1oc(-c2ccccc2)nc1Cc1cc2cc(C#N)ccc2o1`, the figure is 139 to 140 °C.
The result for `COC(=O)c1cccc2c1[nH]c1c3cc(Br)ccc3oc21` reads 204 to 205 °C.
The result for `Cc1ccccc1-c1nc2ccc(O)cc2o1` reads 134 to 138 °C.
`CC(C)n1nc(-c2sc(C(=O)NC3CC3)nc2-c2ccccc2F)ccc1=O` yielded a melting point of 134 to 135 °C.
Consider `Nc1nc(N)nc(-c2cccc(-n3cccc3)c2)n1`, for which the melting point was in the range of 164 to 170 °C.
The compound `CCOc1nnc2cc(Cl)ccc2n1` showed a melting point of 90 to 92 °C.
The result for `COC(=O)c1cc(OC)ccc1N(CC#N)c1ccccc1` reads 107 to 109 °C; that for `Cc1nc(N2C[C@H](C)N(Cc3ccc(F)cc3)C2=O)sc1C(=O)O`, 208 to 210 °C; that for `CC1(C)CCC(C)(C)c2c1ccc(C=Nc1ccc(C(N)=O)cc1)c2N`, 247 to 249 °C.
The result for `COc1ccc2nc3[nH]nc(N)c3cc2c1` reads > 300 °C.
As for `CNC(=O)c1cccc(F)c1Nc1nc(Nc2ccc3c(c2)CCCC(=O)N3CCOC)ncc1Br`, the figure is 191 to 193 °C.
In turn, `COc1ccc2c(c1)C(=O)C(Cc1ccccc1)CO2` (stereo not given) came in with a melting point of 71 to 72 °C.
The result for `COC(=O)CC1CCN(C(=O)C2CCN(c3ccc(C#N)cn3)CC2)CC1` reads 112 to 115 °C; that for `C#CCOc1cc(Oc2ccc(Cl)c(Cl)c2)ncn1`, 109 °C; that for `CC(C)(C)c1ccc2c(c1)C(CO)c1cc(C(C)(C)C)ccc1S2`, 158 to 159 °C.
`COc1ccc(CCOC(=O)NC(=O)C(c2ccccc2)c2ccccc2)cc1OC` came in with a melting point of 144 °C.
The result for `COC(=O)Nc1nc(-c2ccccc2)c(-c2nc3ccccc3c(=O)n2-c2ccccc2)s1` reads > 275 °C; that for `CCOc1cc(C(=O)O)cc(N)c1-c1ccccc1`, 138 °C.
As to `Cc1cc(C)cc(C(=O)N2CC[C@H](NCc3ccnc4ccccc34)C[C@H]2Cc2ccc(Cl)c(Cl)c2)c1` (relative stereo), the melting point lay in the range of 121 to 124 °C.
For `COc1cc(C2CCN(C(=O)CN(C)C)CC2)ccc1Nc1ncc2ccc(-c3ccccc3N(C)S(C)(=O)=O)n2n1`, the melting point was in the range of 99 to 110 °C.
The result for `CC(C)NCC(O)COc1ncccc1Cl` (stereo not given) reads 71 to 73 °C; that for `CCCN(c1nc(-c2ccc(OC)cc2Cl)c(C)s1)c1cc(N)ccc1OC`, 89 °C.
The result for `COCCNC(=O)c1cc(F)cc(-c2cccc3cc(Cc4ccc(F)c(Cl)c4)sc23)c1` reads 108 to 109 °C.
As for `CSc1cccc2c1CC(=O)N2`, the melting point was found to be 198 °C.
As for `C[C@@H]1CC(=O)CC(C)(C)C1=O`, the figure is 91 to 92 °C.
`O=C(c1cccnc1)C1COCOC1`: the melting point fell in the range of 91 to 100 °C.
As for `CCn1c2c(c3ccccc31)Cc1c(C(=O)OC)c(C(=O)OC)c(C)n1C2`, the figure is 202 to 203 °C; as for `Nc1ccccc1NCCCN1CCC(n2c(=O)[nH]c3cc(Cl)ccc32)CC1`, 196 °C.
The result for `CCc1ccc(C=CC(=O)O)cc1` reads 140 °C; that for `CCOC(=O)c1cnn2c(-c3cccc(C(F)(F)F)c3)ccnc12`, 97 to 99 °C.
As for `COc1ccc(C2Cc3cc(C(F)(F)F)ccc3NC(=O)C2CO)cc1` (stereo not given), the figure is 190 °C; as for `Nc1ccc(-c2noc(-c3cnn4c(C(F)F)cc(-c5ccc(Cl)cc5)nc34)n2)cn1`, 254 °C.
